{"source": "PubChem BioAssay (NCI)", "experiment_in_all_cases": "DTP human tumour cell line panel, 48 h", "key": {"A498 renal": {"system": "A498 renal"}, "MALME-3M melanoma": {"system": "MALME-3M melanoma"}, "MCF7 breast": {"system": "MCF7 breast"}, "OVCAR-4 ovarian": {"system": "OVCAR-4 ovarian"}, "SN12C renal": {"system": "SN12C renal"}, "SNB-75 CNS": {"system": "SNB-75 CNS"}, "U251 CNS": {"system": "U251 CNS"}, "UACC-257 melanoma": {"system": "UACC-257 melanoma"}, "UACC-62 melanoma": {"system": "UACC-62 melanoma"}, "A549 NSCLC": {"system": "A549 NSCLC"}}, "note": "Where “and” joins values, the source holds several entries; their conditions need not be identical. Equal values may be shown once.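 Dose response: 5 concentrations. Exposure: 48 h. Format: 96-well plates. Endpoint: linear interpolation; highest concentration if not reached. The concentration for 50% growth inhibition is given as GI50. TGI marks complete inhibition of growth.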", "data": [{"smiles": "c1ccc(Nn2c(CCCCCCCCc3nnc(COc4ccccc4)n3Nc3ccccc3)nnc2COc2ccccc2)cc1", "values": [{"measurement": "GI50", "setting": "A498 renal", "value": 37.6, "unit": "µM"}, {"measurement": "TGI", "setting": "A498 renal", "value": "> 300", "unit": "µM"}, {"measurement": "GI50", "setting": "MALME-3M melanoma", "value": "27.5 µM and 25.7 µM"}, {"measurement": "TGI", "setting": "MALME-3M melanoma", "value": "> 300", "unit": "µM"}, {"measurement": "GI50", "setting": "MCF7 breast", "value": 18.3, "unit": "µM"}, {"measurement": "TGI", "setting": "MCF7 breast", "value": "> 300", "unit": "µM"}, {"measurement": "GI50", "setting": "OVCAR-4 ovarian", "value": "25.8 µM and 88.1 µM"}, {"measurement": "TGI", "setting": "OVCAR-4 ovarian", "value": "> 300", "unit": "µM"}, {"measurement": "GI50", "setting": "SN12C renal", "value": "35.5 µM and 66.6 µM"}, {"measurement": "TGI", "setting": "SN12C renal", "value": "> 300", "unit": "µM"}, {"measurement": "GI50", "setting": "SNB-75 CNS", "value": "48.8 µM and 49.2 µM"}, {"measurement": "TGI", "setting": "SNB-75 CNS", "value": "> 300", "unit": "µM"}, {"measurement": "GI50", "setting": "U251 CNS", "value": "39.6 µM and 144 µM"}, {"measurement": "TGI", "setting": "U251 CNS", "value": "> 300", "unit": "µM"}, {"measurement": "TGI", "setting": "UACC-257 melanoma", "value": "> 86.5", "unit": "µM"}, {"measurement": "GI50", "setting": "UACC-62 melanoma", "value": 1.28, "unit": "µM"}, {"measurement": "TGI", "setting": "UACC-62 melanoma", "value": "> 40.8 µM and 68 µM"}]}, {"smiles": "CN[C@@H]1C[C@H]2O[C@@](C)([C@@H]1OC)n1c3ccccc3c3c4c(c5c6ccccc6n2c5c31)C(=O)N[C@H]4O", "values": [{"measurement": "GI50", "setting": "A498 renal", "value": 0.0053, "unit": "µM"}, {"measurement": "TGI", "setting": "A498 renal", "value": 0.0203, "unit": "µM"}, {"measurement": "GI50", "setting": "A549 NSCLC", "value": 0.0465, "unit": "µM"}, {"measurement": "TGI", "setting": "A549 NSCLC", "value": 3, "unit": "µM"}, {"measurement": "GI50", "setting": "MALME-3M melanoma", "value": 0.0217, "unit": "µM"}, {"measurement": "TGI", "setting": "MALME-3M melanoma", "value": 0.486, "unit": "µM"}, {"measurement": "GI50", "setting": "MCF7 breast", "value": 0.0283, "unit": "µM"}, {"measurement": "TGI", "setting": "MCF7 breast", "value": 1.51, "unit": "µM"}, {"measurement": "GI50", "setting": "OVCAR-4 ovarian", "value": 0.125, "unit": "µM"}, {"measurement": "TGI", "setting": "OVCAR-4 ovarian", "value": "> 10", "unit": "µM"}, {"measurement": "TGI", "setting": "SN12C renal", "value": 1.7, "unit": "µM"}, {"measurement": "GI50", "setting": "SNB-75 CNS", "value": 0.00564, "unit": "µM"}, {"measurement": "TGI", "setting": "SNB-75 CNS", "value": 0.0412, "unit": "µM"}, {"measurement": "GI50", "setting": "U251 CNS", "value": 0.0676, "unit": "µM"}, {"measurement": "TGI", "setting": "U251 CNS", "value": 0.651, "unit": "µM"}, {"measurement": "GI50", "setting": "UACC-257 melanoma", "value": 0.0794, "unit": "µM"}, {"measurement": "TGI", "setting": "UACC-257 melanoma", "value": 2.57, "unit": "µM"}, {"measurement": "GI50", "setting": "UACC-62 melanoma", "value": 0.0134, "unit": "µM"}, {"measurement": "TGI", "setting": "UACC-62 melanoma", "value": 0.231, "unit": "µM"}]}, {"smiles": "COc1cc2c(cc1OC)-c1ccc3cc4c(cc3c1N(CCN(C)C)C2)OCO4", "values": [{"measurement": "GI50", "setting": "A498 renal", "value": 0.723, "unit": "µM"}, {"measurement": "TGI", "setting": "A498 renal", "value": 2.53, "unit": "µM"}, {"measurement": "GI50", "setting": "A549 NSCLC", "value": 0.694, "unit": "µM"}, {"measurement": "TGI", "setting": "A549 NSCLC", "value": 2.13, "unit": "µM"}, {"measurement": "GI50", "setting": "MALME-3M melanoma", "value": 1.15, "unit": "µM"}, {"measurement": "TGI", "setting": "MALME-3M melanoma", "value": 9.45, "unit": "µM"}, {"measurement": "GI50", "setting": "MCF7 breast", "value": 0.122, "unit": "µM"}, {"measurement": "TGI", "setting": "MCF7 breast", "value": 5.98, "unit": "µM"}, {"measurement": "GI50", "setting": "OVCAR-4 ovarian", "value": 0.911, "unit": "µM"}, {"measurement": "TGI", "setting": "OVCAR-4 ovarian", "value": 13.3, "unit": "µM"}, {"measurement": "GI50", "setting": "SN12C renal", "value": 0.35, "unit": "µM"}, {"measurement": "TGI", "setting": "SN12C renal", "value": 4.4, "unit": "µM"}, {"measurement": "GI50", "setting": "SNB-75 CNS", "value": 0.35, "unit": "µM"}, {"measurement": "TGI", "setting": "SNB-75 CNS", "value": 6, "unit": "µM"}, {"measurement": "GI50", "setting": "U251 CNS", "value": 0.215, "unit": "µM"}, {"measurement": "TGI", "setting": "U251 CNS", "value": 1.23, "unit": "µM"}, {"measurement": "GI50", "setting": "UACC-257 melanoma", "value": 2.43, "unit": "µM"}, {"measurement": "TGI", "setting": "UACC-257 melanoma", "value": 16.5, "unit": "µM"}, {"measurement": "GI50", "setting": "UACC-62 melanoma", "value": 0.403, "unit": "µM"}, {"measurement": "TGI", "setting": "UACC-62 melanoma", "value": 5.4, "unit": "µM"}]}, {"smiles": "CCCOC(=O)N[C@H]1CCc2cc(OC)c(OC)c(OC)c2-c2ccc(SC)c(=O)cc21", "values": [{"measurement": "GI50", "setting": "A498 renal", "value": "< 0.01", "unit": "µM"}, {"measurement": "GI50", "setting": "A549 NSCLC", "value": "< 0.01", "unit": "µM"}, {"measurement": "TGI", "setting": "A549 NSCLC", "value": "> 100", "unit": "µM"}, {"measurement": "GI50", "setting": "MALME-3M melanoma", "value": 0.0476, "unit": "µM"}, {"measurement": "TGI", "setting": "MALME-3M melanoma", "value": "> 47.4", "unit": "µM"}, {"measurement": "GI50", "setting": "MCF7 breast", "value": "< 0.01", "unit": "µM"}, {"measurement": "TGI", "setting": "MCF7 breast", "value": "> 100", "unit": "µM"}, {"measurement": "TGI", "setting": "OVCAR-4 ovarian", "value": "> 71.5", "unit": "µM"}, {"measurement": "GI50", "setting": "SN12C renal", "value": "< 0.01", "unit": "µM"}, {"measurement": "TGI", "setting": "SN12C renal", "value": "> 100", "unit": "µM"}, {"measurement": "GI50", "setting": "SNB-75 CNS", "value": "< 0.01", "unit": "µM"}, {"measurement": "TGI", "setting": "SNB-75 CNS", "value": "> 100", "unit": "µM"}, {"measurement": "GI50", "setting": "U251 CNS", "value": "< 0.01", "unit": "µM"}, {"measurement": "TGI", "setting": "U251 CNS", "value": "> 34.1", "unit": "µM"}, {"measurement": "GI50", "setting": "UACC-257 melanoma", "value": 12.1, "unit": "µM"}, {"measurement": "TGI", "setting": "UACC-257 melanoma", "value": "> 56.3", "unit": "µM"}, {"measurement": "GI50", "setting": "UACC-62 melanoma", "value": "< 0.01", "unit": "µM"}, {"measurement": "TGI", "setting": "UACC-62 melanoma", "value": "> 61.2", "unit": "µM"}]}, {"smiles": "CCN(CC)CCCC(C)Nc1c2ccc(Cl)cc2nc2cc(OC)c(OC)cc12", "note": "(stereo not given)", "values": [{"measurement": "GI50", "setting": "A498 renal", "value": 7.07, "unit": "µM"}, {"measurement": "TGI", "setting": "A498 renal", "value": 22.2, "unit": "µM"}, {"measurement": "GI50", "setting": "A549 NSCLC", "value": 1.85, "unit": "µM"}, {"measurement": "TGI", "setting": "A549 NSCLC", "value": 4.56, "unit": "µM"}, {"measurement": "GI50", "setting": "MALME-3M melanoma", "value": 1.86, "unit": "µM"}, {"measurement": "TGI", "setting": "MALME-3M melanoma", "value": 3.52, "unit": "µM"}, {"measurement": "GI50", "setting": "MCF7 breast", "value": 0.656, "unit": "µM"}, {"measurement": "TGI", "setting": "MCF7 breast", "value": 2.9, "unit": "µM"}, {"measurement": "GI50", "setting": "OVCAR-4 ovarian", "value": 1.34, "unit": "µM"}, {"measurement": "TGI", "setting": "OVCAR-4 ovarian", "value": 3.33, "unit": "µM"}, {"measurement": "GI50", "setting": "SN12C renal", "value": 3.31, "unit": "µM"}, {"measurement": "TGI", "setting": "SN12C renal", "value": 17.8, "unit": "µM"}, {"measurement": "GI50", "setting": "SNB-75 CNS", "value": 1.31, "unit": "µM"}, {"measurement": "TGI", "setting": "SNB-75 CNS", "value": 2.6, "unit": "µM"}, {"measurement": "GI50", "setting": "UACC-257 melanoma", "value": 2.23, "unit": "µM"}, {"measurement": "TGI", "setting": "UACC-257 melanoma", "value": 4.1, "unit": "µM"}, {"measurement": "GI50", "setting": "UACC-62 melanoma", "value": 2.14, "unit": "µM"}, {"measurement": "TGI", "setting": "UACC-62 melanoma", "value": 4.69, "unit": "µM"}]}, {"smiles": "O=CC(Br)C(Br)c1ccccc1", "note": "(stereo not given)", "values": [{"measurement": "GI50", "setting": "A498 renal", "value": 13.9, "unit": "µM"}, {"measurement": "TGI", "setting": "A498 renal", "value": 29.5, "unit": "µM"}, {"measurement": "GI50", "setting": "A549 NSCLC", "value": 21.1, "unit": "µM"}, {"measurement": "TGI", "setting": "A549 NSCLC", "value": 49.9, "unit": "µM"}, {"measurement": "GI50", "setting": "MCF7 breast", "value": 0.478, "unit": "µM"}, {"measurement": "TGI", "setting": "MCF7 breast", "value": 2.23, "unit": "µM"}, {"measurement": "GI50", "setting": "OVCAR-4 ovarian", "value": 1.69, "unit": "µM"}, {"measurement": "TGI", "setting": "OVCAR-4 ovarian", "value": 3.14, "unit": "µM"}, {"measurement": "GI50", "setting": "SN12C renal", "value": 3.06, "unit": "µM"}, {"measurement": "TGI", "setting": "SN12C renal", "value": 11.4, "unit": "µM"}, {"measurement": "GI50", "setting": "SNB-75 CNS", "value": 7.69, "unit": "µM"}, {"measurement": "TGI", "setting": "SNB-75 CNS", "value": 20.9, "unit": "µM"}, {"measurement": "GI50", "setting": "U251 CNS", "value": 7.4, "unit": "µM"}, {"measurement": "TGI", "setting": "U251 CNS", "value": 20.4, "unit": "µM"}, {"measurement": "GI50", "setting": "UACC-257 melanoma", "value": 1.9, "unit": "µM"}, {"measurement": "TGI", "setting": "UACC-257 melanoma", "value": 4.56, "unit": "µM"}, {"measurement": "GI50", "setting": "UACC-62 melanoma", "value": 1.79, "unit": "µM"}, {"measurement": "TGI", "setting": "UACC-62 melanoma", "value": 3.74, "unit": "µM"}]}]}
